Test [1] has as its target T1, androgen receptor LBD (Panvera) (Rattus norvegicus, UniProt P15207).
T1 construct: 5 pmol androgen receptor LBD (Panvera); purchased Panvera
T1 sequence (P15207 651-882 limits assumed): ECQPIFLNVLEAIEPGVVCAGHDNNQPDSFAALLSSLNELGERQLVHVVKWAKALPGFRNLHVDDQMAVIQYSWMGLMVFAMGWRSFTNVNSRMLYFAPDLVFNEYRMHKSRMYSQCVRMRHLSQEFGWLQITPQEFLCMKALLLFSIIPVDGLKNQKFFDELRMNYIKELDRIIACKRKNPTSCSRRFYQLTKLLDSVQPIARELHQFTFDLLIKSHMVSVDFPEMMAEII
As to the kind of experiment: Androgen Receptor Filtration Binding Assay (PANVERA). The following applies: [3H] R1881 tracer. The method, then: The assay was run on a 96 well plate with each well filled with a total reaction volume 150 μL, of a solution containing 5 pmol androgen receptor LBD (Panvera) or 30 μL of freshly prepared rat cytosol, 0.5 nM [^3H] […] (TED buffer contains 10 mM Tris.HCl pH 7.4, 1 mM sodium molybdate, 1.5 mM EDTA, 1 mM DTT and 10% (v/v) glycerol.)
On day one, the solution containing receptor, tracer and TED buffer was distributed into a 96 well plate. Diluted test compound or control vehicle was then added to individual wells and the plate incubated at 4° C. overnight.
On day two, to each well was then added 20 μL human γ-globulin (ICN 823102), prepared at 25 mg/ml in TE pH 8.0, and 55 μL 40% polyethylene glycol 8000 (JT Baker U222-08), prepared in TE pH 8.0. The plate was incubated at 4° C. for 60 minutes. During incubation, the harvester was rinsed with 10% PEG 8000, prepared in TE pH 8.0, and a GF/C Unifilter-96 was pre-wet with 10% PEG. The binding reaction was filtered, the retentate was washed three times with 10% PEG and dried under vacuum for a couple of minutes, then dried at 50° C. for 5 min and the plate was bottom sealed. Next, 25 μL of Microscint-20 (Packard) was added to the filter wells and the plate was top sealed. The plate wells were then counted on a TopCount (Packard).
Counts per well were measured and IC50s determined by linear regression.

The target of test [2] is T2, androgen receptor (Rattus norvegicus, UniProt P15207).
T2 sequence (P15207 1-902): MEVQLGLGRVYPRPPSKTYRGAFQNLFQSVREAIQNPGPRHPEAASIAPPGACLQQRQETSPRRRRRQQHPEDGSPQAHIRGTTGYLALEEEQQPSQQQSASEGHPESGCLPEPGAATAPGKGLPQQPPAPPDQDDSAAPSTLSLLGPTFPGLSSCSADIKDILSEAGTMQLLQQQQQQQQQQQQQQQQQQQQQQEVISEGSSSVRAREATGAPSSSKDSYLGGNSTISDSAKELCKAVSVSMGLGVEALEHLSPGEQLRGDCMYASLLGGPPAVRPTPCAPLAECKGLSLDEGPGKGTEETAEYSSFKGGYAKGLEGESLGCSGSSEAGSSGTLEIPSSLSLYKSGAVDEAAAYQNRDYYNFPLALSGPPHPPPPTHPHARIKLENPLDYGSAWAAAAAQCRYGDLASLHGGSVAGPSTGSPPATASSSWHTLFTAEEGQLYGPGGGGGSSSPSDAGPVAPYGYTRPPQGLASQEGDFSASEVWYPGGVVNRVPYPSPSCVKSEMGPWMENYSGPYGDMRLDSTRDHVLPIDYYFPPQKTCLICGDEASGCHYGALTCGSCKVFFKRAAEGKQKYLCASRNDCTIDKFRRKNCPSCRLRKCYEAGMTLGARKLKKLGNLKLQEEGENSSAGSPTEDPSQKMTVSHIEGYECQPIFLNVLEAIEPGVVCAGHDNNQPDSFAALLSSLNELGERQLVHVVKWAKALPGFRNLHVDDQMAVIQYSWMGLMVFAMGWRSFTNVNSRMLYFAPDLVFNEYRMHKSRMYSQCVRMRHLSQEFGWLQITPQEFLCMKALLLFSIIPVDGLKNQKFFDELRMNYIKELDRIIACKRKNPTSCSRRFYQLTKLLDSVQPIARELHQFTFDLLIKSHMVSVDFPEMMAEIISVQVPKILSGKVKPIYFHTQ
Description: Androgen Receptor Binding Using Rat Ventral Prostate Cytosol. Also on record: from tissue; host or cells: ventral prostate cytosol of castrated male Sprague Dawley or Wistar rats. The settings on record: Rat Cytosol; Concentration 1000 nM. The method, then: Rat Prostate Cytosol Preparation:
Male Sprague Dawley or Wistar rats (Charles River, 200-300 g) were used for each preparation. The day before preparing the cytosol, the rats were castrated using standard surgical procedures.
The rats were euthanized by carbon dioxide asphyxiation. The rat prostates were quickly removed and placed on ice in pre-chilled, pre-weighed 50 mL plastic tubes. No more than five prostates were placed into one tube. The tubes were then weighed and the prostate tissue wet weights calculated.
To the chilled prostate tissue was then added […] of chilled homogenization buffer. The homogenization buffer was freshly prepared by mixing 10 mM Tris.HCl, pH 7.4, 1 mM sodium molybdate, 1.5 mM EDTA, 1 mM dithiothreitol, 10% (v/v) glycerol and 1% protease inhibitor cocktail (Sigma P 8340).
The prostate tissue was homogenized in a cold room using a pre-chilled Polytron PT3000 homogenizer (Brinkmann). Homogenization was performed at a speed setting of 20, three times for 10 sec bursts. The tubes containing the prostate tissue was kept on ice while homogenizing. The homogenate was allowed to rest on ice for 20 sec between bursts.
The homogenate was then placed into pre-chilled 3 mL polycarbonate ultracentrifuge tubes and centrifuged in the TLA-100 rotor of a TL-100 ultracentrifuge for 12 min at 100,000 rpm at 4° C. The resulting supernatant was stored in 1 mL aliquots at −80° C. until needed.
Binding to the androgen receptor was determined according to the protocol described in Example 86 using the above prepared rat cytosol.
% Inhibition was determined by testing dilutions of the test compound (usually duplicates of 10 μM) in the binding assay. Counts per well were measured and percents of inhibition determined. […] Counts per well were measured and IC50s determined by linear regression.

One may read the IC50 as the concentration that gives 50% inhibition. Read a low IC50 as greater potency in that assay. What is called % Inhibition is the relative decrease from the control value, in per cent. High values mean a response far below the control, low ones a response near the control.

With `Cc1ccc(C(=O)OCC(C)(O)c2cc3cc([N+](=O)[O-])c(C(F)(F)F)cc3[nH]2)cc1` (racemic) [compound 69], in test [1], the half-maximal inhibitory concentration (IC50) came out at 1200 nM. The “% Inhibition” value in test [2] is 31%.

The record behind these values is patent US9434688B2, “Indole derivatives as selective androgen receptor modulators (SARMS)” (Janssen Pharmaceutica, NV, priority 2004, dated 2016).
